Among the test systems are EKVX; BT-549; UO-31; Malme-3M; SK-OV-3; SNB-19; SK-MEL-5; IGROV-1; SW-620; M14; CCRF-CEM; PC-3; CAKI-1; HCC 2998; SF-295; HCT-116; NCI-H522; UACC-257; OVCAR-3; SF-539.
Experiment in all cases: NCI anticancer screen, dose series, 48 h

Molecules are shown by their SMILES.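 Cultured in 96-well plates, cells were exposed to test compound for 48 hours across five concentrations. The concentration for 50% growth inhibition is given as GI50.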 Active and inactive are the calls of the source. No stated cut-off is given here; in the data, active = GI50 up to about 1.1 µM and inactive = higher. A value given as a limit tells only on which side of the number the result lay.

The results in this text go back to ChEMBL document CHEMBL1201862, “PubChem BioAssay data set” (2004).

For the compound `O=C1c2ccccc2C(=O)N1CCSCC(CO)SCCN1C(=O)c2ccccc2C1=O` (centres undefined), the GI50 in the test with EKVX is 91 µM (inactive); in the test with BT-549, > 100 µM (inactive); in the test on UO-31 it was > 100 µM (inactive); in the test on Malme-3M, > 100 µM (inactive); in the test with SK-OV-3, > 100 µM (inactive); in the test with SNB-19, > 100 µM (inactive). In addition, the GI50 is > 100 µM (inactive) in the test with SK-MEL-5; > 100 µM (inactive) in the test with IGROV-1; > 100 µM (inactive) with SW-620; 96.8 µM (inactive) in the test on M14; 59.8 µM (inactive) in the test with CCRF-CEM; > 100 µM (inactive) in the test on PC-3. Also, the GI50 is > 100 µM (inactive) with CAKI-1; > 100 µM (inactive) with HCC 2998; > 100 µM (inactive) in the test on SF-295; > 100 µM (inactive) with HCT-116; 62.5 µM (inactive) in the test with NCI-H522; > 100 µM (inactive) with UACC-257.

In the case of `CCN(CC)C(=S)SS(=O)(=O)c1ccc(NC(C)=O)cc1`, the GI50 with EKVX was 44.5 µM (inactive); in the test with BT-549, 39.3 µM (inactive); in the test with UO-31, 19.5 µM (inactive); with Malme-3M it was 15.9 µM (inactive); with SK-OV-3, 40.5 µM (inactive); in the test with SNB-19, 38.1 µM (inactive). The GI50 with SK-MEL-5 is 0.778 µM (active); in the test with SW-620, 16.7 µM (inactive); with M14, 17.1 µM (inactive); in the test with OVCAR-3, 31.7 µM (inactive); with PC-3, 27.1 µM (inactive); with CAKI-1, 18.8 µM (inactive). In addition, the GI50 in the test with HCC 2998 is 31.6 µM (inactive); in the test with SF-295, 28.2 µM (inactive); in the test with HCT-116 it was 16 µM (inactive); in the test on NCI-H522, < 0.0213 µM (active); in the test with UACC-257 it was 21.8 µM (inactive).

As for `COc1ccc2oc(=O)c(-c3cc4c(c(C)n3)c(=O)oc3ccc(OC)cc34)cc2c1`, the GI50 with EKVX was > 100 µM (inactive); with BT-549, > 100 µM (inactive); with UO-31 it was > 100 µM (inactive); in the test with SF-539, 93.5 µM (inactive); in the test on SK-OV-3, > 100 µM (inactive); in the test with SNB-19, 25.5 µM (inactive). Besides, the GI50 in the test on SK-MEL-5, in the test on IGROV-1, in the test with SW-620, with M14, in the test with OVCAR-3 and in the test with CCRF-CEM was > 100 µM (inactive) throughout. In addition, the GI50 with PC-3 was > 100 µM (inactive); in the test with CAKI-1 it was 70.8 µM (inactive); in the test with HCC 2998, > 100 µM (inactive); in the test with SF-295, 95.7 µM (inactive); in the test on HCT-116 it was > 100 µM (inactive); in the test on NCI-H522, > 100 µM (inactive). Also, the GI50 with UACC-257 was > 100 µM (inactive).

In the case of `O=CNNC(=O)CSc1nc2ccc(I)cc2c(=O)n1Cc1ccccc1`, the GI50 with EKVX is 23.9 µM (inactive); in the test with BT-549, 41.7 µM (inactive); in the test with UO-31 it was 1.72 µM (inactive); with SF-539 it was 34.6 µM (inactive); with SK-OV-3 it was 49.7 µM (inactive); with SNB-19, 46.6 µM (inactive). Also, the GI50 is 18.6 µM (inactive) in the test with SK-MEL-5; 32.3 µM (inactive) with IGROV-1; 44.8 µM (inactive) with SW-620; 31.6 µM (inactive) in the test on M14; 21.8 µM (inactive) in the test on OVCAR-3; 23.7 µM (inactive) in the test on CCRF-CEM. For the same compound, the GI50 is 39 µM (inactive) in the test with PC-3; 22.2 µM (inactive) in the test on CAKI-1; 26.8 µM (inactive) with HCC 2998; 40.6 µM (inactive) in the test on SF-295; 20.4 µM (inactive) with HCT-116; 20.9 µM (inactive) in the test with NCI-H522. In addition, the GI50 in the test with UACC-257 is 22.9 µM (inactive).

As to `N#Cc1c(-c2ccccc2)cc(-c2ccccc2)n(C2OCC(O)C(O)C2O)c1=S` (centres undefined), the GI50 in the test on EKVX was 36.2 µM (inactive); in the test on BT-549, 16.6 µM (inactive); with UO-31, 19 µM (inactive); in the test on SF-539, 22.2 µM (inactive); in the test with Malme-3M, 30.7 µM (inactive); with SK-OV-3, 11.7 µM (inactive). The GI50 in the test with SNB-19 was 26.6 µM (inactive); with SK-MEL-5 it was 14.7 µM (inactive); in the test on IGROV-1, 17.7 µM (inactive); in the test with SW-620, 16.5 µM (inactive); in the test on M14, 27.2 µM (inactive); with OVCAR-3, 22.3 µM (inactive). Besides, the GI50 with CCRF-CEM was 16.4 µM (inactive); in the test with PC-3, 14.6 µM (inactive); with CAKI-1 it was 32.5 µM (inactive); in the test with SF-295 it was 18.5 µM (inactive); with HCT-116 it was 14.7 µM (inactive); with NCI-H522, 18.2 µM (inactive). The GI50 in the test on UACC-257 is 33.3 µM (inactive).

For the compound `COc1cc(C2c3cc4c(cc3OC(NCCO)C2C)OCO4)cc(OC)c1O` (centres undefined), the GI50 in the test on BT-549 is 9.53 µM (inactive); with UO-31, 24.5 µM (inactive); in the test with SF-539, 13.9 µM (inactive); in the test on Malme-3M it was 6.37 µM (inactive); in the test on SNB-19 it was 29.2 µM (inactive); with SK-MEL-5 it was 4.86 µM (inactive). Besides, the GI50 in the test on IGROV-1 was 7.11 µM (inactive); in the test with SW-620, 5.53 µM (inactive); in the test with M14, 9.55 µM (inactive); in the test on OVCAR-3, 5.2 µM (inactive); in the test on PC-3, 8.79 µM (inactive); in the test on CAKI-1, 19.2 µM (inactive). Besides, the GI50 in the test with HCC 2998 was 5.81 µM (inactive); in the test with SF-295, 5.48 µM (inactive); in the test with HCT-116, 5.06 µM (inactive); with NCI-H522, 3.27 µM (inactive).

As for `O=C(C[n+]1ccccc1)N/N=C(\C(=O)NC1=C(Cl)C(=O)c2ccccc2C1=O)c1c(O)c2ccc(O)cc2oc1=O`, the GI50 with EKVX was 12.9 µM (inactive); in the test with BT-549, 5.14 µM (inactive); in the test with UO-31, 12.2 µM (inactive); with SF-539 it was 4.28 µM (inactive); with SK-OV-3 it was 14.1 µM (inactive); with SK-MEL-5, 1.06 µM (active). Further, the GI50 in the test on IGROV-1 is 2.41 µM (inactive); in the test with SW-620, 3.89 µM (inactive); in the test with M14, 3.5 µM (inactive); in the test on OVCAR-3 it was 3.37 µM (inactive); in the test with CCRF-CEM, 4.94 µM (inactive); in the test with PC-3, 2.77 µM (inactive). Moreover, the GI50 with CAKI-1 is 6.64 µM (inactive); in the test on HCC 2998 it was 3.4 µM (inactive); in the test on SF-295 it was 3.05 µM (inactive); in the test with HCT-116 it was 2.99 µM (inactive); in the test on NCI-H522, 2.07 µM (inactive); in the test with UACC-257 it was 3.03 µM (inactive).

As to `Cc1ccc(/C=C2/N/C(=N\N=C/c3ccccc3)NC2=O)cc1`, the GI50 with EKVX is 43.1 µM (inactive); with BT-549, 29.9 µM (inactive); in the test on UO-31, 18.4 µM (inactive); in the test on SF-539 it was 44.4 µM (inactive); in the test with Malme-3M it was 42.5 µM (inactive); in the test with SK-OV-3, 40.3 µM (inactive). Moreover, the GI50 with SNB-19 is 25.8 µM (inactive); in the test with SK-MEL-5, 35 µM (inactive); in the test on IGROV-1 it was 51.6 µM (inactive); in the test with SW-620 it was 41.6 µM (inactive); with M14, 31.7 µM (inactive); in the test with OVCAR-3, 44.8 µM (inactive). For the same compound, the GI50 with PC-3 was 48.5 µM (inactive); with CAKI-1, 38.5 µM (inactive); in the test with HCC 2998, 28.9 µM (inactive); in the test with SF-295, 28.9 µM (inactive); with HCT-116, 28.6 µM (inactive); in the test with NCI-H522 it was 31.8 µM (inactive). Moreover, the GI50 in the test on UACC-257 is > 100 µM (inactive).

Take `Cc1ccc(C(=O)Nc2ccc(S(=O)(=O)O)c3cc(S(=O)(=O)O)cc(S(=O)(=O)O)c23)cc1NC(=S)Nc1cc(C(=O)Nc2ccc(S(=O)(=O)O)c3cc(S(=O)(=O)O)cc(S(=O)(=O)O)c23)ccc1C`: the GI50 in the test with BT-549, in the test on UO-31, in the test with Malme-3M, in the test with SNB-19, with SK-MEL-5 and in the test with IGROV-1 was > 75 µM (inactive) throughout. For the same compound, the GI50 in the test on SW-620, in the test with M14, in the test on OVCAR-3, in the test with CCRF-CEM, in the test on PC-3 and in the test with CAKI-1 was > 75 µM (inactive) in each case. In addition, the GI50 with HCC 2998, in the test with HCT-116, in the test on NCI-H522 and in the test with UACC-257 was > 75 µM (inactive) each time.

Turning to `COCCNc1cncc(C(N)=O)c1`, the GI50 in the test with EKVX, with BT-549, in the test with UO-31, in the test with SF-539, in the test with SK-OV-3 and in the test on SNB-19 was > 100 µM (inactive) each time. Besides, the GI50 with SK-MEL-5, with IGROV-1, in the test on SW-620, in the test on M14, in the test with OVCAR-3 and in the test with CCRF-CEM was > 100 µM (inactive) throughout. Also, the GI50 with PC-3, with CAKI-1, in the test with HCC 2998, in the test with SF-295, with HCT-116 and in the test on NCI-H522 was > 100 µM (inactive) each time. The GI50 in the test on UACC-257 is > 100 µM (inactive).

Regarding `CC(C)(C)NC(=O)CCC1C(C(=O)NC(C)(C)C)C2(Cl)C(Cl)=C(Cl)C1(Cl)C2(Cl)Cl` (centres undefined), the GI50 in the test on EKVX, with BT-549, in the test with UO-31, in the test with SF-539, in the test on Malme-3M and in the test on SK-OV-3 was > 100 µM (inactive) in each case. In addition, the GI50 with SNB-19, with SK-MEL-5, in the test with IGROV-1, in the test on SW-620, in the test on M14 and in the test on OVCAR-3 was > 100 µM (inactive) each time. The GI50 in the test on CCRF-CEM, in the test with PC-3, in the test on HCC 2998, in the test on SF-295, in the test on HCT-116 and with NCI-H522 was > 100 µM (inactive) each time. Besides, the GI50 with UACC-257 was > 100 µM (inactive).
